Where two headings read alike, the source gives them in different places.
Columns and labels:
[1] = biological target: T1, sec7-domain of cytohesin-1 (Homo sapiens, UniProt Q15438); experiment: GDP/GTP exchange on NΔ17-ARF1 catalysed by sec7-domain (tryptophan fluorescence); format: biochemical; settings: 1 μM NΔ17-ARF1, 1 μM sec7-domain, compounds 1 μM to 30 μM
T1 construct: central sec7-domain, corresponding to the amino acids 62-244 in cytohesin-1; made in house; host or cells: E. coli BL21DE3
T1 sequence (Q15438 62-244): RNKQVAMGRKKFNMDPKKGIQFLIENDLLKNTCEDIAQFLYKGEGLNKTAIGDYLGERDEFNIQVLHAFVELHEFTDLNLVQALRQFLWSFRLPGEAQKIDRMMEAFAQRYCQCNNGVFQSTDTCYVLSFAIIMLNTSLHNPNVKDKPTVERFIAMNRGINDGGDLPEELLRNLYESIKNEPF
Protocol: (§1) The IC50 value for the inhibition of the exchange activity of the sec7-domains of various guanine nucleotide exchange factors of the compounds (9), (10), (11), (12), (14) and (19) was determined.
(§2) For this purpose, the sec7-domains of cytohesin-1, cytohesin-2 and Gea2 as well as the NΔ 17-ARF 1, a mutant of the ARF protein, recombinantly expressed in E. coli BL21DE3, were purified by means of a standard method and used as catalysts for the exchange from GDP to GTP in GTPases of the family of the ADP ribosylation factors. The exchange from GDP to GTP induces a conformation change of the ribosylation factor, as a result of which the fluorescence of a tryptophan radical of the protein is increased.
(§3) In 50 mM of HEPES, pH 7.4, 120 mM of KCl, 1 mM of MgCl2, 45 μM of GTP S, the compounds (9), (10), (11), (12), (14) and (19), each in concentrations of 1 μM to 30 μM, were added to 1 μM NΔ 17-ARF1 and, in each case, 1 μM of the purified sec7-domain of cytohesin-1, cytohesin-2 and Gea2, and the fluorescence was measured in a Varioskan, Thermo LifeSciences Inc., at the following wavelengths: excitation: 275 nm, emission 340 nm.
(§4) The IC50 value can be determined by plotting the initial rise of the fluorescence signal against the added concentrations of the compounds. The IC50 value corresponds to the concentration of the compounds at which the activity of the protein is reduced to half. […] Brefeldin A, a specific inhibitor of the […] Gea2 served as the control.

sec7-domain of Gea2 = biological target: T2, sec7-domain of Gea2 (Saccharomyces cerevisiae, UniProt P39993); experiment: as above; format: biochemical
T2 construct: 1 μM of the purified sec7-domain of cytohesin-1, cytohesin-2 and Gea2; made in house; host or cells: E. coli BL21DE3
Protocol: as §1, §2, §3, §4

[2] = test system: sec7-domain of cytohesin-1; experiment: as above; format: biochemical; settings: conclusion in words from Table 1
Protocol: as §1, §2, §3, §4

[3] = biological target: T3, sec7-domain of cytohesin-2 (Homo sapiens, UniProt Q99418); experiment: as above; format: biochemical; settings: 1 μM NΔ17-ARF1, 1 μM sec7-domain, compounds 1 μM to 30 μM
T3 construct: 1 μM of the purified sec7-domain of cytohesin-1, cytohesin-2 and Gea2; made in house; host or cells: E. coli BL21DE3
T3 sequence (Q99418 72-201 limits assumed): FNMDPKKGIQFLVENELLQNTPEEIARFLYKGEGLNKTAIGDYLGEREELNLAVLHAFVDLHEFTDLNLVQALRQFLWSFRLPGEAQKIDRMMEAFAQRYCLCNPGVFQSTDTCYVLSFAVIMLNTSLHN
Protocol: as §1, §2, §3, §4

[4] = MTT assay (LC50) in HeLa-cells; format: cell-based; settings: human, after 24 hours
Protocol: The LC50 values were determined by an MTT assay according to a standard method.
The LC50 value describes the lethal concentration at which […] died within 24 hours after a one-time administration.

cytohesin-2 = experiment: luciferase assay in HeLa-cells (serum response element activation, MAPK path via cytohesin-2); format: cell-based; settings: compounds 1 μM to 50 μM, read-out: IC50 (luciferase signal)
Protocol: The IC50 value was determined in comparison to the LC50 value in a luciferase assay in HeLa-cells, corresponding to the test conditions described in Theis, M. G. et al., Proc Natl Acad Sci USA, 101, 11221-26 (2004). The stimulation of receptor tyrosine kinases by means of growth factors contained in fetal calf serum activates the MAPK path via cytohesin-2 and results in an activation of the serum response element. This activation manifests itself in the quantity of luciferase produced in the cells.
Compounds (9), (10), (11), (12), (14) and (19) were each added in concentrations of 1 μM to 50 μM to 6.5×10^4 HeLa-cells.
The IC50 value was determined from the plotting of the concentration of the compound against the intensity of the luciferase signal.

[5] = test system: human peripheral blood cells (PBL); experiment: adhesion of human peripheral blood cells (PBL) to ICAM-1 after stimulation with OKT3 or PMA; format: cell-based; settings: stimulation with OKT3; FIG. 2
Description: Human peripheral blood cells (PBL) were stimulated with agonists that activate a beta-2 integrin-dependent adhesion. In these primary human lymphocytes, the beta-2 integrin-dependent adhesion can be activated by cytohesins at the specific ligands ICAM-1.
The agonists employed were the monoclonal antibody OKT3 (hybridome of ATCC, mAb OKT3 purified on protein A, according to standard methods from Current Protocols in Immunology, 5th Ed., Coligan et al., Edts, Wiley 2004) against the CD3 complex, a T-cell receptor and phorbolester (PMA), which non-physiologically activates intracellular signal cascades in human PBL including integrin-dependent adhesion while circumventing cytohesins.
Cells from human blood were isolated according to standard methods (Current Protocols in Immunology, 5th Ed., 2004, Coligan et al., Edts, Wiley). Cell culture dishes coated with ICAM-1 were produced by means of recombinant ICAM-1-Fc fusion protein (Kolanus, W. et al., Cell 86, 233-42 (1996), Geiger, C. et al., EMBO J., 19, 2525-2536 (2000)). 300,000 human peripheral blood cells (PBL) were stimulated for 30 minutes with 2 μg/ml of OKT3 or 40 ng/ml of phorbolester (PMA) in Hank's BSS, (Gibco; composition (g/l): CaCl2x2H2O (0.185), KCl (0.4), KH2PO4 (0.06), MgCl2x6H2O (0.1), MgSO4x7H2O (0.1), NaCl (8.0), NaHCO3 (0.35), Na2HPO4 (0.048), D-glucose (1.0)), and placed for one hour in Hank's BSS onto the ICAM-1 coated cell culture dishes, whereby the agonists were not removed. Non-bound cells were removed by washing with Hank's BSS. The percentage of bound cells was determined by counting under a microscope using a standard counting grid.

T2 sequence (P39993 570-714): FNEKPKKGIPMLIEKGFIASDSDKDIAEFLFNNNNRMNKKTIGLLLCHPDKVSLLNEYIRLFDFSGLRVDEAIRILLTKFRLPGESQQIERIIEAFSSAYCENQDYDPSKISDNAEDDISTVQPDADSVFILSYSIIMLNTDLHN

Compound	IC50 [1] [µM]	IC50 (sec7-domain of Gea2; 1 μM NΔ17-ARF1, 1 μM sec7-domain, compounds 1 μM to 30 μM, read-out: IC50 Gea2-sec7) [µM]	specificity of inhibition of sec7-domains (cytohesins vis-à-vis Gea2) [2]	IC50 [3] [µM]	CC50 at 24 h [4] [µM]	IC50 (sec7-domain of Gea2) [µM]	IC50 (cytohesin-2) [µM]	effect on OKT3-mediated adhesion in primary human lymphocytes [5]
C[C@H]1CCC/C=C/[C@@H]2C[C@H](O)C[C@H]2[C@H](O)/C=C/C(=O)O1 [Brefeldin A, reference compound]	> 150	23 ± 1	specific inhibition of the sec7-domain of Gea2	> 150				
CCOc1nc(-c2cccc(F)c2)n(-c2ccc(NC(=O)Cc3cccs3)cc2)n1 [Compound 10]	12.6 ± 0.3		specific inhibition of the sec7-domains of the cytohesins	16.1 ± 0.9	> 150	67 ± 5	23 ± 5	
CCOc1nc(-c2ccccc2F)n(-c2ccc(NC(=O)CSc3ccccc3)cc2)n1 [Compound 11]	8.8 ± 0.3		specific inhibition of the sec7-domains of the cytohesins	12.4 ± 0.3	142 ± 12	42 ± 4	5 ± 1.5	
CN(c1cc(Cl)nc(SCc2ccc(C(=O)NCc3ccco3)cc2)n1)C1CCCCC1 [Compound 12]	8 ± 0.3		specific inhibition of the sec7-domains of the cytohesins	19.5 ± 0.3	> 150	22 ± 2	5 ± 1.5	
O=C(CN(CC1CCCO1)C(=O)Cc1cccs1)N(Cc1ccc(F)cc1)Cc1ccco1 (stereo not shown) [Compound 14]	14.8 ± 0.3		specific inhibition of the sec7-domains of the cytohesins	19.3 ± 0.3			3 ± 1	
O=C(O)[C@H]1CSCN1C(=O)Cc1cccs1 [Compound 19]	15 ± 0.3		specific inhibition of the sec7-domains of the cytohesins	20 ± 0.6	> 150		3.5 ± 0.5	
CC(C)(C)c1ccc(S(=O)(=O)N(Cc2ccc(OS(C)(=O)=O)cc2)CC2CCCO2)cc1 (stereo not shown) [Control 1, reference compound]					> 150		> 50	
CCOCCCN(Cc1nc(C(=O)NCCCOCO)co1)C(=O)c1ccccc1Br [Control 2, reference compound]								no effect
